Assay results: article PMC7058083, “Structural basis of ligand binding modes at the human formyl peptide receptor 2” (Nature Communications, 2020)

What was measured:
[1] = test system: FPR2 (wild type and mutant V113A); experiment: cAMP inhibition assay, HEK293 cells, 5 μM forskolin; assay type: cell-based, human
Source text: contribute to the effect of mutations on ligand binding and receptor signaling in addition to the direct disruption of receptor-ligand interaction.
To make the above clear, the statement “The effect of these mutations on ligand binding and receptor signaling could be explained by direct disruption of the receptor-ligand interaction, destabilization of ligand-binding pocket conformation, and/or impairment of global conformational rearrangement required for receptor activation” has been added to the […]
3) The authors use the crystal structures as an opportunity to dock other ligands with the their experimentally determined structure of FPR2. With the exception of LXA4, the docking of formyl peptides with mutagenesis experiments produce insightful results for fMLFK. For LXA4, more work is necessary to justify the docking pose. Otherwise, it is my opinion that it should […]
— We appreciated the reviewer’s comment. Functional assays for LXA4 are challenging due to the poor ability of this ligand to trigger calcium mobilization and IP accumulation. To verify the predicted binding mode of LXA4 in FPR2, we have performed additional assays by […]
fold while having minimal effect on the LXA4-induced cAMP reduction. […]
model of LXA4. […]
was detected and the concentrations were shown. […]
5) How was the omit map calculated to remove any bias for the agonist in SFig. […]

[2] = test system: FPR2; design: method as in 3 sources, ref 4 = [4]; PMID 24285541; doi:10.1074/jbc.M113.509216; 4. He HQ Troksa EL Caltabiano G Pardo L Ye RD Structural determinants for the interaction of formyl peptide receptor 2 with peptide ligands J. Biol. Chem. 2014 289 2295 2306 10.1074/jbc.M113.509216 24 ||| ref 34 = [34]; PMID 11818455; 34. Bae YS Kim Y Park JC Suh PG Ryu SH The synthetic chemoattractant peptide, Trp-Lys-Tyr-Met-Val-D-Met, enhances monocyte survival via PKC-dependent Akt activation J. Leukoc. Biol. 2002 71 329 338 11 ||| ref 35 = [35]; PMID 11285256; doi:10.1074/jbc.M007769200; 35. Christophe T The synthetic peptide Trp-Lys-Tyr-Met-Val-Met-NH 2 specifically activates neutrophils through FPRL1/lipoxin A 4 receptors and is an agonist for the orphan monocyte-expressed chemoattr; settings: cited from earlier work
[3] = test system: FPR2; design: method as in PMID 24285541; settings: cited from earlier work
Method: To investigate the binding mode of formyl peptide in FPR2, molecular docking of this tripeptide to the FPR2 crystal structure was performed (Supplementary Data 2). […] It was also reported that the polar residue D281^7.32 was crucial for the interaction of FPR2 with certain formyl peptides. It was proposed that this negatively charged residue in FPR2 was repulsive with the C-terminal COO− group of fMLF and the negatively charged glutamate residue in fMLFE, but forms a stable interaction with the p ...

[4] = test system: FPR2; settings: cited from earlier work
Source text: This movement breaks the hydrogen bonds between the C-terminal NH2- group of the peptide and the receptor residues D106^3.33 and R201^5.38, and disrupts the polar interaction network establishe ...

With `CCCCC[C@H](O)/C=C/C=C\C=C\C=C\[C@@H](O)[C@@H](O)CCCC(=O)O` [LXA4, lipoxin A4] the “effect of mutation on ligand-induced cAMP reduction” value ([1]; FPR2 V113A, 30 min) was “minimal” and the “change in intracellular cAMP” value ([1]; wild-type FPR2, 30 min) was “measurable changes”.
In the case of N-formyl-Met-Leu-Phe [fMLF], the “lower potency in inducing Ca2+ mobilization” value ([2]; FPR2 compared to FPR1) is given as 2000 fold and the lower binding affinity ([3]; FPR2 compared to FPR1) is given as “over 400 fold”.
For WKYMVM-NH2, the “reduction in EC50 in stimulating phosphoinositide hydrolysis relative to WKYMVm” value [4] is given as “over 100 fold”.
In the case of fMLFII [formyl pentapeptide agonist], the “agonist potency over fMLF at FPR2” value [2] is given as “increased” and the “binding affinity over fMLF at FPR2” value [3] is given as “increased”.
